Experimental findings from patent US10174047B2, “Thienodiazepine derivatives or pharmaceutically acceptable salts thereof, and pharmaceutical composition including the same as an active ingredient” (Industry-University Cooperation Foundation Hanyang …, priority 2015, dated 2019) are described below.

The target of one test is ALK (Homo sapiens, UniProt Q9UM73). The test can be described thus: Kinase panel screening. Type of test: biochemical. As for the experimental part: (§1) Using the compound of Example 43 (1-(4-((4-ethylpiperazine-1-yl)methyl)-3-(trifluoromethyl)phenyl)-3-(4-(2-oxo-2,3-dihydro-1H-thieno[3,4-b][1,4]diazepine-4-yl)phenyl)urea), kinase panel screening was conducted against 35 kinds of kinases at a concentration of 10 μM, and the results are shown in the following Tables 4 and 5 (percentages of enzymatic inhibitions exerted by compound 43 (10 μM) on 30 selected protein kinases).
(§2) Further, the IC50 values (50% inhibition concentration) of the compound of Example 43 against various kinases were calculated using GraphPad Prism 4.0 software, and the results are shown in the following Table 6.

In another test the target is MEK1 (Homo sapiens, UniProt Q02750). The test can be described thus: Kinase panel screening. Type of test: biochemical. Conditions: MEK1, 10 μM. On the procedure:
as §1, §2

The target of another test is FMS (Homo sapiens, UniProt P07333). The test can be described thus: Kinase panel screening. Type of test: biochemical. On the procedure: as §1, §2
A further test concerns the target RAF1 (Homo sapiens, UniProt P04049). Put plainly: Kinase panel screening. Type of test: biochemical. The following applies: RAF1, 10 μM. On the procedure:
as §1, §2

In a further test the target is P38a/MAPK14 (Homo sapiens, UniProt Q16539). Put plainly: Kinase panel screening. Format: biochemical. Conditions: P38a/MAPK14, 10 μM. On the procedure: as §1, §2
The target of the next test is FAK/PTK2 (Homo sapiens, UniProt Q05397). The test can be described thus: Kinase panel screening. The following applies: FAK/PTK2, 10 μM. Type of test: biochemical. As for the experimental part:
as §1, §2

The next test addresses BRAF (V599E) (Homo sapiens, UniProt P15056, V600E). The test can be described thus: Kinase panel screening. Type of test: biochemical. On the procedure:
as §1, §2

Another test addresses FLT3 (Homo sapiens, UniProt P36888). The test can be described thus: Kinase panel screening. Format: biochemical. The following applies: FLT3, 10 μM. As for the experimental part: as §1, §2
The target of a further test is BRAF (Homo sapiens, UniProt P15056). The test can be described thus: Kinase panel screening. Type of test: biochemical. As for the experimental part:
as §1, §2

In another test the target is PDGFRb (Homo sapiens, UniProt P09619). Put plainly: Kinase panel screening. Type of test: biochemical. As for the experimental part: as §1, §2
In another test the target is CDK2/cyclin E (Homo sapiens, UniProt P24941). Put plainly: Kinase panel screening. Format: biochemical. As for the experimental part: as §1, §2
A further test deals with FGFR1 (Homo sapiens, UniProt P11362). The test can be described thus: Kinase panel screening. Type of test: biochemical. The following applies: FGFR1, 10 μM. On the procedure:
as §1, §2

The target of the next test is FLT4/VEGFR3 (Homo sapiens, UniProt P35916). Put plainly: Kinase panel screening. Format: biochemical. Conditions: FLT4/VEGFR3, 10 μM. As for the experimental part:
as §1, §2

The target of the next test is PDGFRa (Homo sapiens, UniProt P16234). The test can be described thus: Kinase panel screening. Format: biochemical. As for the experimental part:
as §1, §2

A further test has as its target AKT1 (Homo sapiens, UniProt P31749). The test can be described thus: Kinase panel screening. Conditions: AKT1, 10 μM. Type of test: biochemical. On the procedure: as §1, §2
For a further test, the target named is FGFR2 (Homo sapiens, UniProt P21802). The test can be described thus: Kinase panel screening. Type of test: biochemical. The following applies: FGFR2, 10 μM. On the procedure:
as §1, §2

A further test has as its target FGFR3 (Homo sapiens, UniProt P22607). Put plainly: Kinase panel screening. Format: biochemical. The following applies: FGFR3, 10 μM. On the procedure:
as §1, §2

The target in the next test is GSK3b (Homo sapiens, UniProt P49841). The test can be described thus: Kinase panel screening. Type of test: biochemical. On the procedure:
as §1, §2

The target in a further test is c-Src (Homo sapiens, UniProt P12931). Put plainly: Kinase panel screening. Format: biochemical. As for the experimental part: as §1, §2
The next test deals with LYN (Homo sapiens, UniProt P07948). Put plainly: Kinase panel screening. Type of test: biochemical. As for the experimental part: as §1, §2
In another test the target is LCK (Homo sapiens, UniProt P06239). The test can be described thus: Kinase panel screening. Format: biochemical. As for the experimental part: as §1, §2
For a further test, the target named is IGF1R (Homo sapiens, UniProt P08069). Put plainly: Kinase panel screening. Type of test: biochemical. On the procedure: as §1, §2
The target in another test is ROS/ROS1 (Homo sapiens, UniProt P08922). The test can be described thus: Kinase panel screening. Format: biochemical. The following applies: ROS/ROS1, 10 μM. On the procedure:
as §1, §2

The target of a further test is c-MET (Homo sapiens, UniProt P08581). Put plainly: Kinase panel screening. Format: biochemical. On the procedure: as §1, §2
The next test has as its target EGFR (Homo sapiens, UniProt P00533). The test can be described thus: Kinase panel screening. Format: biochemical. As for the experimental part: as §1, §2
The next test addresses c-Kit (Homo sapiens, UniProt P10721). Put plainly: Kinase panel screening. Type of test: biochemical. As for the experimental part: as §1, §2
The target in a further test is SYK (Homo sapiens, UniProt P43405). Put plainly: Kinase panel screening. Type of test: biochemical. As for the experimental part:
as §1, §2

The target of the next test is ERK1 (Homo sapiens, UniProt P27361). Put plainly: Kinase panel screening. Format: biochemical. Conditions: ERK1, 10 μM. On the procedure: as §1, §2
The next test concerns the target ITK (Homo sapiens, UniProt Q08881). Put plainly: Kinase panel screening. Type of test: biochemical. On the procedure: as §1, §2
A further test deals with RET (Homo sapiens, UniProt P07949). The test can be described thus: Kinase panel screening. Type of test: biochemical. On the procedure:
as §1, §2

For the next test, the target named is KDR/VEGFR2 (Homo sapiens, UniProt P35968). The test can be described thus: Kinase panel screening. The following applies: KDR/VEGFR2, 10 μM. Type of test: biochemical. On the procedure: as §1, §2
The target of a further test is TIE2/TEK (Homo sapiens, UniProt Q02763). Put plainly: Kinase panel screening. Type of test: biochemical. On the procedure:
as §1, §2

For another test, the target named is CDK1/cyclin B (Homo sapiens, UniProt P06493). Put plainly: Kinase panel screening. Type of test: biochemical. On the procedure: as §1, §2
In a further test the target is Aurora A (Homo sapiens, UniProt O14965). The test can be described thus: Kinase panel screening. Type of test: biochemical. On the procedure:
as §1, §2

A further test addresses FLT1/VEGFR1 (Homo sapiens, UniProt P17948). Put plainly: Kinase panel screening. Format: biochemical. The following applies: FLT1/VEGFR1, 10 μM. On the procedure: as §1, §2
Test [1] relates to A375P cell line (melanoma). The test can be described thus: Proliferation inhibition activity against A375P cell line (MTT assay). The following applies: A375P melanoma cells; for GI50: MTT assay; for effects against A375P: statement in words. Format: cell-based. As for the experimental part: Measurement of Proliferation Inhibition Activity Against A375P Cell Line (Melanoma)
An A375P cell line purchased from ATCC was cultured in a DMEM medium [containing 10% FBS, 1% penicillin/streptomycin] at 37° C. in the presence of 5% CO2. The cultured A375P cell line was taken using 0.05% trypsin-0.02% EDTA, and seeded into a 96-well plate at a density of 5×10^3 cells per well.
Cell viability was measured using an MTT [3-(4,5-dimethylthiazol-2-yl)-2,5-diphenyltetrazolium bromide] assay (CellTiter 96 Assay, Promega) as follows. 15 μl of dye was placed per well, the cells were cultured for 2 hours, and then treated with 100 μl of a stop solution, and after 24 hours, absorbance was measured. One day after plating, they were treated with compounds. For treatment with compounds, […] of stock was prepared, and serially diluted to one-third in dimethyl sulfoxide (DMSO) to prepare a 12-point test compound plate, and 0.5 μl was added (final concentration DMSO 0.5%).
In the following Tables 1 to 3, in a case of GI50 being 10 to 30 μM, it was indicated as (+), in a case of it being 1 to 10 μM, it was indicated as (++), and in case of being less than 1 μM, it was indicated as (+++).
On the technique in general: Formazan colour is commonly taken as a measure of viable cells.

Setting [2] is: read-out: GI50 value against A375P.

In general, inhibition refers to the percentage by which the read-out fell short of the control. What is called GI50 is the concentration at which growth is held to half of that of the control.

Structures are written as SMILES. Like-named read-outs stand apart in the source and are kept apart here. Some results are limits rather than exact numbers.

FAK/PTK2, sequence (Q05397 whole entry): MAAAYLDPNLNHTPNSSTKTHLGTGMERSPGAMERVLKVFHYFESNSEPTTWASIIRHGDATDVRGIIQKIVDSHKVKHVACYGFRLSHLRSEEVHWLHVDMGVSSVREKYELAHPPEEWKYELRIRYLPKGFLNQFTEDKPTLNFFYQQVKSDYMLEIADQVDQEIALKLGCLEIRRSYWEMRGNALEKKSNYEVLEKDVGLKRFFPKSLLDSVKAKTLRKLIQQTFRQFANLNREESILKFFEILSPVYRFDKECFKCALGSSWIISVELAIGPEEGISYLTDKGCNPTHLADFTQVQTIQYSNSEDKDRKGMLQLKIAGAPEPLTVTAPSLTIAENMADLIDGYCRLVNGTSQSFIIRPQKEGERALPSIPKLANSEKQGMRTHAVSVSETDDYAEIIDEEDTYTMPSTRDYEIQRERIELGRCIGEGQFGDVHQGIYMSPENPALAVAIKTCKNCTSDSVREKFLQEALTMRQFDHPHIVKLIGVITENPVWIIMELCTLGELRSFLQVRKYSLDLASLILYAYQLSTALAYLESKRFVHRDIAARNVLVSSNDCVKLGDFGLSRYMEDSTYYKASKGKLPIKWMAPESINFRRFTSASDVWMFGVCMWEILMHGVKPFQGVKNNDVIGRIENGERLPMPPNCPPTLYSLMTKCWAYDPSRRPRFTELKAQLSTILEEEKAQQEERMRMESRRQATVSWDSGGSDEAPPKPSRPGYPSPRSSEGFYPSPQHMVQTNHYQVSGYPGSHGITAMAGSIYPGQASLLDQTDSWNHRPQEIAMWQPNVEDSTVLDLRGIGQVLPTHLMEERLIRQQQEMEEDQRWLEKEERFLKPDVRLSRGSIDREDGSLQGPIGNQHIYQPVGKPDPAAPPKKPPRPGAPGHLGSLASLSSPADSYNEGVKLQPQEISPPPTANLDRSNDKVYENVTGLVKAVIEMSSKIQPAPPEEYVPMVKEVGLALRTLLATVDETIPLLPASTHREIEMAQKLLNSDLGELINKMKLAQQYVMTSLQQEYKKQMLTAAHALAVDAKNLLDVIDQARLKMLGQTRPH
FLT4/VEGFR3, sequence (P35916 25-1363): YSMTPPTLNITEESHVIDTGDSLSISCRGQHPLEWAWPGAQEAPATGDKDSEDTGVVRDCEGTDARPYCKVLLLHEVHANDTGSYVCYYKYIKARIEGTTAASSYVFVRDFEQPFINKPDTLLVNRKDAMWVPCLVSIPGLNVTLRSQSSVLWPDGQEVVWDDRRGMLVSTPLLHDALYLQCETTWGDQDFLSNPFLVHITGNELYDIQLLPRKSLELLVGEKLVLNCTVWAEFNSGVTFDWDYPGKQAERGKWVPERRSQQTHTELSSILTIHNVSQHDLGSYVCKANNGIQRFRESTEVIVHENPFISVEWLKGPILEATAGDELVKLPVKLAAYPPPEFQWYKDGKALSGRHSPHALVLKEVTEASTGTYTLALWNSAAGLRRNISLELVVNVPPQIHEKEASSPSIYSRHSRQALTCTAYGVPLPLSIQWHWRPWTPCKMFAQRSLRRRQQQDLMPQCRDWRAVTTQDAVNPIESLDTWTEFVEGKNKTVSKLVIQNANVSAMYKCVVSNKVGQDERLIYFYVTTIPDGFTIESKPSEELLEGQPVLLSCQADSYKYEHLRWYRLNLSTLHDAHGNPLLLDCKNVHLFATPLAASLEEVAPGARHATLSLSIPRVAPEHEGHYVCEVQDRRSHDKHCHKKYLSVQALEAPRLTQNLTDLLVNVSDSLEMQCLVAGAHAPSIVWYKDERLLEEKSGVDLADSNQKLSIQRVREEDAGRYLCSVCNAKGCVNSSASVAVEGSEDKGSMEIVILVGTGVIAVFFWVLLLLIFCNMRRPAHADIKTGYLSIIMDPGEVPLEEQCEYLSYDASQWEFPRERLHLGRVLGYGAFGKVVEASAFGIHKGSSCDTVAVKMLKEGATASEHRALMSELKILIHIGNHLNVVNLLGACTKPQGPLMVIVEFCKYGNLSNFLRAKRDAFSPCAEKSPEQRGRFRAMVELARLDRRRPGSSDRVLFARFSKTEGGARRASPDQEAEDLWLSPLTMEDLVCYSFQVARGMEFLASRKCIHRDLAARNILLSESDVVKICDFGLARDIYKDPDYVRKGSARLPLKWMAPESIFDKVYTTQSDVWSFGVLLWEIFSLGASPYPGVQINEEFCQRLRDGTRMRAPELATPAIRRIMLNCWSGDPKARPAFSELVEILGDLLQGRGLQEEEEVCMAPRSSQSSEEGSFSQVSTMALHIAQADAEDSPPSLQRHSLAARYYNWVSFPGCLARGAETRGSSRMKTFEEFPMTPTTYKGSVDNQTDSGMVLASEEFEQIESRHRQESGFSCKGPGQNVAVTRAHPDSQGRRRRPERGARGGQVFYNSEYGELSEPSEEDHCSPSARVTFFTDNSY
PDGFRa, sequence (P16234 24-1089, species assumed): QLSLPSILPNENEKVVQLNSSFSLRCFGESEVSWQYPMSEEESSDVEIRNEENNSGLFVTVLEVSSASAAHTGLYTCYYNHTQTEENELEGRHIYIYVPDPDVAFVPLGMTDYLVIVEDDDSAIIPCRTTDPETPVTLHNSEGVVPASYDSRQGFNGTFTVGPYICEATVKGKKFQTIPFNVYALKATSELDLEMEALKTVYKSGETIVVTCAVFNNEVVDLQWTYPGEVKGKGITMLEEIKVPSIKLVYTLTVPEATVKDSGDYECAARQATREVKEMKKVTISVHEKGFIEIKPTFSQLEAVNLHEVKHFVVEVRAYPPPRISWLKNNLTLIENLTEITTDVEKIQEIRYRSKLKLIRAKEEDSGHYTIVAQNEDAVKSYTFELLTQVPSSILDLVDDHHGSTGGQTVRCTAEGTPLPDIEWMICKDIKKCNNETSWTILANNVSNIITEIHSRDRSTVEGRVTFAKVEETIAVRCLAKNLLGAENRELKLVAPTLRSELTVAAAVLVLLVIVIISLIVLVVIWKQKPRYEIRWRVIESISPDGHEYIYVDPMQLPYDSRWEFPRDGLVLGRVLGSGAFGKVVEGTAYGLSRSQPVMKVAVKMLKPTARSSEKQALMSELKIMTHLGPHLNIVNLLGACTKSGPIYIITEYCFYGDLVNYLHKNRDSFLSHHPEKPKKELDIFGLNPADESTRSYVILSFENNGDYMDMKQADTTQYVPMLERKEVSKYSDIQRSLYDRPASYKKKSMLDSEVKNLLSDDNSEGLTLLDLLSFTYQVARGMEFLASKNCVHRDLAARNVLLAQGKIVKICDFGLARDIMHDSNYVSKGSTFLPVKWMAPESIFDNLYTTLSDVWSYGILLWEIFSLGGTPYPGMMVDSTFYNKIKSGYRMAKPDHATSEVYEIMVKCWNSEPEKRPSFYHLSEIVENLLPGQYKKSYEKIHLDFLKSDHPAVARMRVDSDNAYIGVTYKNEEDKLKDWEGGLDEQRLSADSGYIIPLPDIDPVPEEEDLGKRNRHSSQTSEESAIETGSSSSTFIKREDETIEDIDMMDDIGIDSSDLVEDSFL
PDGFRb, sequence (P09619 33-1106, species assumed): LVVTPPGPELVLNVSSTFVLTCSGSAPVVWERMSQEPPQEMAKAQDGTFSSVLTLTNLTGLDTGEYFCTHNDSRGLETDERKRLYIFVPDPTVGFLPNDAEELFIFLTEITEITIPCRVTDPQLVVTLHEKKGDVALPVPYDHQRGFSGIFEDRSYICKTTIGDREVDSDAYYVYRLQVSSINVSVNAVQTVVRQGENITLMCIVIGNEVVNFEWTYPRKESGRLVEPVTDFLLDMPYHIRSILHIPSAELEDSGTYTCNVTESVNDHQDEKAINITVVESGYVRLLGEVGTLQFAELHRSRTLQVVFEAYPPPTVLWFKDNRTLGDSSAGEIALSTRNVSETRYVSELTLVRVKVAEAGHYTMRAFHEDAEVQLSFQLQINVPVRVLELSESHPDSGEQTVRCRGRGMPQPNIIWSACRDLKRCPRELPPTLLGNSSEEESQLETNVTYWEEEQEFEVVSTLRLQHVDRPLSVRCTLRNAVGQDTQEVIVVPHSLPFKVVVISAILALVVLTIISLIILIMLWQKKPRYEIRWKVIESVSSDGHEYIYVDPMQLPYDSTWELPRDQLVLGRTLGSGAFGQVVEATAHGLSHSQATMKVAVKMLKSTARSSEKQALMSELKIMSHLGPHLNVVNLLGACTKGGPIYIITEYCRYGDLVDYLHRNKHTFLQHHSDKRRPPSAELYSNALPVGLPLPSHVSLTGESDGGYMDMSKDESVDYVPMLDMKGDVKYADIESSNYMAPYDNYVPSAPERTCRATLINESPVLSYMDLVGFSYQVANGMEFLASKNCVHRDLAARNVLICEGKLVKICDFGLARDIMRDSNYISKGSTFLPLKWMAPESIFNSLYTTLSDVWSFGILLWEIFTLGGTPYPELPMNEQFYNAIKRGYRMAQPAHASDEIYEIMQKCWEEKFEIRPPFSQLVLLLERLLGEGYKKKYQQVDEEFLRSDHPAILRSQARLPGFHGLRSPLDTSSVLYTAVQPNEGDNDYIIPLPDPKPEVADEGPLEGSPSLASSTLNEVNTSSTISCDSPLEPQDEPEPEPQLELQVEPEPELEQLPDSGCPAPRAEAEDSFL
LYN, sequence (P07948 whole entry): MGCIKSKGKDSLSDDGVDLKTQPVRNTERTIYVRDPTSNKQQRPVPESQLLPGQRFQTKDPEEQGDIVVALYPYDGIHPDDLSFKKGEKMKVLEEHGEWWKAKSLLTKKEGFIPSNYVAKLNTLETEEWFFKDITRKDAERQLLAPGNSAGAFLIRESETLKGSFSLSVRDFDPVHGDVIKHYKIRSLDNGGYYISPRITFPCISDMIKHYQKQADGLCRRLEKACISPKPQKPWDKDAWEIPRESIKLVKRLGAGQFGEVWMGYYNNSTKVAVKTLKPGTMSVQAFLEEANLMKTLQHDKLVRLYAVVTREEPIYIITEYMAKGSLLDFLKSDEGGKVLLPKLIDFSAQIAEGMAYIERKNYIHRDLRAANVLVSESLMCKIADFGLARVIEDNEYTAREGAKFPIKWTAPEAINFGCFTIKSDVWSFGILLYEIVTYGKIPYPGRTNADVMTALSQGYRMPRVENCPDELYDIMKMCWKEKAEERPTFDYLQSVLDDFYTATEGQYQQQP

Turning to `CCN1CCN(Cc2ccc(NC(=O)Nc3ccc(C4=Nc5cscc5NC(=O)C4)cc3)cc2C(F)(F)F)CC1` [Example 43, 1-(4-((4-ethylpiperazine-1-yl)methyl)-3-(trifluoromethyl)phenyl)-3-(4-(2-oxo-2,3-dihydro-1H-thieno[3,4-b][1,4]diazepine-4-yl)phenyl)urea], the inhibition at 10 µM against ALK was found to be 41%; on MEK1, 5.26%; against FMS, 100%; on RAF1 it was 86.2%; against P38a/MAPK14 it was 89.9%; at FAK/PTK2, 41.2%. For the same compound, the inhibition at 10 µM was 43.9% against BRAF (V599E); 98.9% at FLT3; 32% against BRAF; 96.1% against PDGFRb; 0.28% on CDK2/cyclin E; 34.4% at FGFR1. Moreover, the inhibition at 10 µM is 95.8% against FLT4/VEGFR3; 85.9% on PDGFRa; 3.23% at AKT1; 29.9% at FGFR2; 45% on FGFR3; 8.62% against GSK3b. In addition, the inhibition at 10 µM against c-Src was 55.2%; against LYN it was 89.4%; against LCK it was 79.3%; against IGF1R, 1.34%; on ROS/ROS1 it was 3.71%; against c-MET, 21.7%. Also, the inhibition at 10 µM at EGFR was determined as 24.8%; against c-Kit it was 85.9%; against SYK, 57.4%; on ERK1 it was 1.22%; on ITK it was 20.7%; on RET, 99.1%. Besides, the inhibition at 10 µM on KDR/VEGFR2 turned out to be 60.2%; at TIE2/TEK, 64.9%; against CDK1/cyclin B, 2.68%; at Aurora A, 20.4%; against FLT1/VEGFR1, 79.1%. Besides, the GI50 is below 1000 nM in test [1] (read-out: A375P (GI50)) and 1450 nM in [1] (setting [2]). Moreover, in test [1], the “effects against A375P” value is “significant effects”.
In the case of `O=C1CC(c2cccc(NC(=O)Nc3ccc(Cl)c(C(F)(F)F)c3)c2)=Nc2cscc2N1` [Example 46, 1-(4-chloro-3-(trifluoromethyl)phenyl)-3-(3-(2-oxo-2,3-dihydro-1H-thieno[3,4-b][1,4]diazepine-4-yl)phenyl)urea], the GI50 in test [1] (read-out: A375P (GI50)) was in the range of 1000 to 10000 nM.
Still for that read-out and setting: as for `O=C1CC(c2cccc(NC(=O)Nc3ccc(Cl)cc3)c2)=Nc2cscc2N1` [Example 47, 1-(4-chlorophenyl)-3-(3-(2-oxo-2,3-dihydro-1H-thieno[3,4-b][1,4]diazepine-4-yl)phenyl)urea], the figure is 1000 to 10000 nM.
In the case of `O=C1CC(c2cccc(NC(=O)Nc3cccc(Cl)c3)c2)=Nc2cscc2N1` [Example 48, 1-(3-chlorophenyl)-3-(3-(2-oxo-2,3-dihydro-1H-thieno[3,4-b][1,4]diazepine-4-yl)phenyl)urea], the GI50 in test [1] (read-out: A375P (GI50)) is below 1000 nM. Moreover, in [1], the “effects against A375P” value is reported as “significant effects”.
On to `CCN1CCN(Cc2ccc(NC(=O)Nc3cccc(C4=Nc5cscc5NC(=O)C4)c3)cc2C(F)(F)F)CC1` [Example 49, 1-(4-((4-ethylpiperazine-1-yl)methyl)-3-(trifluoromethyl)phenyl)-3-(3-(2-oxo-2,3-dihydro-1H-thieno[3,4-b][1,4]diazepine-4-yl)phenyl)urea], for which the GI50 in [1] (read-out: A375P (GI50)) is below 1000 nM. In test [1], the “effects against A375P” value is “significant effects”.
In the case of `O=C1CC(c2cccc(NC(=O)Nc3ccc(Cl)c(Cl)c3)c2)=Nc2cscc2N1` [Example 50, 1-(3,4-dichlorophenyl)-3-(3-(2-oxo-2,3-dihydro-1H-thieno[3,4-b][1,4]diazepine-4-yl)phenyl)urea], the GI50 in [1] (read-out: A375P (GI50)) fell in the range of 1000 to 10000 nM.
Regarding `O=C1CC(c2cccc(NC(=O)Nc3cc(Cl)cc(Cl)c3)c2)=Nc2cscc2N1` [Example 51, 1-(3,5-dichlorophenyl)-3-(3-(2-oxo-2,3-dihydro-1H-thieno[3,4-b][1,4]diazepine-4-yl)phenyl)urea], the GI50 in test [1] (read-out: A375P (GI50)) was in the range of 10000 to 30000 nM.
As to `O=C1CC(c2cccc(NC(=O)Nc3ccccc3F)c2)=Nc2cscc2N1` [Example 52, 1-(2-fluorophenyl)-3-(3-(2-oxo-2,3-dihydro-1H-thieno[3,4-b][1,4]diazepine-4-yl)phenyl)urea], the GI50 in test [1] (read-out: A375P (GI50)) lay in the range of 10000 to 30000 nM.
Turning to `CNC(=O)c1cc(Oc2ccc(NC(=O)Nc3ccc(Cl)c(C(F)(F)F)c3)cc2)ccn1` [Sorafenib, reference compound], the GI50 in test [1] (setting [2]) amounted to 2740 nM.
